pIC50: −log10 of the molar value. Each block holds one compound with its values, some of them ahead of it.
Target: human TRPV4 (Homo sapiens (Human), UniProt Q9HBA0)
Test: FLIPR assay for hTRPV4 expressed in BHK cells
Type: cell-based
Details: inhibition of Agonist Compound (EC80)-induced calcium signal; BHK/AC9 cells expressing human TRPV4; read-out: IC50
Protocol: FLIPR Assay for hTRPV4 Expressed in BHK Cells:
TRPV4 channel activation results in an influx of divalent and monovalent cations including calcium. The resulting changes in intracellular calcium were monitored using a calcium specific fluorescent dye Fluo-4 (MDS Analytical Technologies). BHK/AC9 cells transduced with BacMam virus expressing the human TRPV4 gene at a MOI of 78 were plated in a 384 well poly-D lysine coated plate (15,000 cells/well in 50 μL culture medium containing DMEM/F12 with 15 mM HEPES, 10% FBS, 1% Penicillin-Streptomycin and 1% L-glutamine). Cells were incubated for 24 hours at 37° C. and 5% CO2. Culture medium was then aspirated using a Tecan plate-washer and replaced with 20 μL/well of dye loading buffer: HBSS, 500 μM Brilliant Black (MDS Analytical Technologies), and 2 μM Fluo-4 AM. Dye loaded plates were then incubated in the dark at room temperature for 1˜1.5 hours.

Sequence of human TRPV4 (Q9HBA0 whole entry): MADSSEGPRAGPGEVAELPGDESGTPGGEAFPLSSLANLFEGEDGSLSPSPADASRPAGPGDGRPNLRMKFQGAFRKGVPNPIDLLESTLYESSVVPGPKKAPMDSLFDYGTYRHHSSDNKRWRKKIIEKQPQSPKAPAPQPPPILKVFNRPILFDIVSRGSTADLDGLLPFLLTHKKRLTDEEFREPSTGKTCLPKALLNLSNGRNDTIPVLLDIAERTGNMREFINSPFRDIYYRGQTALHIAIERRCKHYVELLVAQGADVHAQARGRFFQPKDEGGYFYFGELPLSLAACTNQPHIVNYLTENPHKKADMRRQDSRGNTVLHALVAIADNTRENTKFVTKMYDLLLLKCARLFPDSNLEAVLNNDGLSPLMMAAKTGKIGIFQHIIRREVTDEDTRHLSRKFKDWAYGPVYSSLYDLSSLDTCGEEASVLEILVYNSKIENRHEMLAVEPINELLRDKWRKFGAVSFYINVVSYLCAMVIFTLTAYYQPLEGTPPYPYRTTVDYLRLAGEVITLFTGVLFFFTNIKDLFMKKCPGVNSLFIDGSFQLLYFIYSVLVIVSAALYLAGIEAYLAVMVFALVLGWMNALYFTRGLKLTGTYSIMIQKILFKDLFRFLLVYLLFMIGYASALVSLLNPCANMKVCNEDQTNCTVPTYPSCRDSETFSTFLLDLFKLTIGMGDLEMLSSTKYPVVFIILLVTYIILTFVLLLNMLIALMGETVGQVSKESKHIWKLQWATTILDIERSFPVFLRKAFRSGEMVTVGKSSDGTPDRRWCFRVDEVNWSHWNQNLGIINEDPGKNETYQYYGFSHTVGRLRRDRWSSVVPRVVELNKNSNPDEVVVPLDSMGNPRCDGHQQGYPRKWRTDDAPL

SMILES: N#Cc1ccc(S(=O)(=O)N2C[C@H](S(=O)(=O)c3ccc(C(F)(F)F)cc3)[C@](O)(CO)C2)c(OC2CC2)c1 [Example 57, 3-cyclopropoxy-4-(((3R,4S)-3-hydroxy-3-(hydroxymethyl)-4-((4-(trifluoromethyl)phenyl)sulfonyl)pyrrolidin-1-yl)sulfonyl)benzonitrile]
pIC50: 7.00 to 8.00

SMILES: Cc1ccc(S(=O)(=O)N2C[C@H](S(=O)(=O)c3ccc(C#N)cc3)[C@](O)(CO)C2)c(Cl)c1 [Example 58, 4-(((3S,4R)-1-((2-chloro-4-methylphenyl)sulfonyl)-4-hydroxy-4-(hydroxymethyl)pyrrolidin-3-yl)sulfonyl)benzonitrile]
pIC50: 7.00 to 8.00

SMILES: N#Cc1ccc(S(=O)(=O)[C@H]2CN(S(=O)(=O)c3ccc(Cl)cc3Br)C[C@@]2(O)CO)cc1 [Example 59, 4-(((3S,4R)-1-((2-bromo-4-chlorophenyl)sulfonyl)-4-hydroxy-4-(hydroxymethyl)pyrrolidin-3-yl)sulfonyl)benzonitrile]
pIC50: 8.00 to 10.00

SMILES: COc1ccc(S(=O)(=O)N2C[C@H](S(=O)(=O)c3ccc(C#N)cc3)[C@](O)(CO)C2)c(Br)c1 [Example 60, 4-(((3S,4R)-1-((2-bromo-4-methoxyphenyl)sulfonyl)-4-hydroxy-4-(hydroxymethyl)pyrrolidin-3-yl)sulfonyl)benzonitrile]
pIC50: 7.00 to 8.00

SMILES: N#Cc1ccc(S(=O)(=O)N2C[C@H](S(=O)(=O)c3ccc(C(F)(F)F)cn3)[C@](O)(CO)C2)c(OC2CC2)c1 [Example 61, 3-cyclopropoxy-4-(((3R,4S)-3-hydroxy-3-(hydroxymethyl)-4-((5-(trifluoromethyl)pyridin-2-yl)sulfonyl)pyrrolidin-1-yl)sulfonyl)benzonitrile]
pIC50: 7.00 to 8.00

SMILES: N#Cc1ccc(S(=O)(=O)[C@H]2CN(S(=O)(=O)c3ccc(F)cc3Cl)C[C@@]2(O)CO)cc1 [Example 62, 4-(((3S,4R)-1-((2-chloro-4-fluorophenyl)sulfonyl)-4-hydroxy-4-(hydroxymethyl)pyrrolidin-3-yl)sulfonyl)benzonitrile]
pIC50: 7.00 to 8.00

SMILES: N#Cc1ccc(S(=O)(=O)[C@H]2CN(S(=O)(=O)c3cc(F)c(Cl)cc3Cl)C[C@@]2(O)CO)cc1 [Example 63, 4-(((3S,4R)-1-((2,4-dichloro-5-fluorophenyl)sulfonyl)-4-hydroxy-4-(hydroxymethyl)pyrrolidin-3-yl)sulfonyl)benzonitrile]
pIC50: 7.00 to 8.00

pIC50: 7.00 to 8.00
SMILES: COC(=O)c1ccc(S(=O)(=O)[C@H]2CN(S(=O)(=O)c3ccc(Cl)cc3C(F)F)C[C@@]2(O)CO)cc1 [Example 64]

SMILES: O=S(=O)(c1ccc(Cl)cc1)[C@H]1CN(S(=O)(=O)c2ccc(Cl)cc2C(F)F)C[C@@]1(O)CO [Example 65, (3R,4S)-1-((4-chloro-2-(difluoromethyl)phenyl)sulfonyl)-4-((4-chlorophenyl)sulfonyl)-3-(hydroxymethyl)pyrrolidin-3-ol]
pIC50: 7.00 to 8.00

SMILES: N#CCc1cc(Cl)ccc1S(=O)(=O)N1C[C@H](S(=O)(=O)c2ccc(Cl)cc2)[C@](O)(CO)C1 [Example 66, 2-(5-chloro-2-(((3R,4S)-4-((4-chlorophenyl)sulfonyl)-3-hydroxy-3-(hydroxymethyl)pyrrolidin-1-yl)sulfonyl)phenyl)acetonitrile]
pIC50: 7.00 to 8.00

pIC50: 7.00 to 8.00
SMILES: O=S(=O)(c1ccc(Cl)cc1)[C@H]1CN(S(=O)(=O)c2cccnc2OC(F)F)C[C@@]1(O)CO [Example 67, (3R,4S)-4-((4-chlorophenyl)sulfonyl)-1-((2-(difluoromethoxy)pyridin-3-yl)sulfonyl)-3-(hydroxymethyl)pyrrolidin-3-ol]

SMILES: N#Cc1ccc(S(=O)(=O)N2C[C@H](S(=O)(=O)c3nccs3)[C@](O)(CO)C2)c(Cl)c1 [Example 68, 3-chloro-4-(((3R,4S)-3-hydroxy-3-(hydroxymethyl)-4-(thiazol-2-ylsulfonyl)pyrrolidin-1-yl)sulfonyl)benzonitrile]
pIC50: 7.00 to 8.00

SMILES: N#Cc1ccc(S(=O)(=O)[C@H]2CN(S(=O)(=O)c3ccc(C(F)(F)F)cc3F)C[C@@]2(O)CO)cc1F [Example 69, 2-fluoro-4-(((3S,4R)-1-((2-fluoro-4-(trifluoromethyl)phenyl)sulfonyl)-4-hydroxy-4-(hydroxymethyl)pyrrolidin-3-yl)sulfonyl)benzonitrile]
pIC50: 7.00 to 8.00

SMILES: Cc1cc(C#N)ccc1S(=O)(=O)N1C[C@H](S(=O)(=O)c2ccc(C#N)c(F)c2)[C@](O)(CO)C1 [Example 70, 4-(((3S,4R)-1-((4-cyano-2-methylphenyl)sulfonyl)-4-hydroxy-4-(hydroxymethyl)pyrrolidin-3-yl)sulfonyl)-2-fluorobenzonitrile]
pIC50: 8.00 to 10.00

SMILES: Cc1cc(C(F)(F)F)ccc1S(=O)(=O)N1C[C@H](S(=O)(=O)c2ccc(C#N)c(F)c2)[C@](O)(CO)C1 [Example 71, 2-fluoro-4-(((3S,4R)-4-hydroxy-4-(hydroxymethyl)-1-((2-methyl-4-(trifluoromethyl)phenyl)sulfonyl)pyrrolidin-3-yl)sulfonyl)benzonitrile]
pIC50: 7.00 to 8.00

SMILES: Cc1nc(C(F)(F)F)ccc1S(=O)(=O)N1C[C@H](S(=O)(=O)c2ccc(C#N)c(F)c2)[C@](O)(CO)C1 [Example 72, 2-fluoro-4-(((3S,4R)-4-hydroxy-4-(hydroxymethyl)-1-((2-methyl-6-(trifluoromethyl)pyridin-3-yl)sulfonyl)pyrrolidin-3-yl)sulfonyl)benzonitrile]
pIC50: 7.00 to 8.00

SMILES: N#Cc1ccc(S(=O)(=O)N2C[C@H](S(=O)(=O)c3ncc(Cl)s3)[C@](O)(CO)C2)c(Cl)c1 [Example 73, 3-chloro-4-(((3R,4S)-4-((5-chlorothiazol-2-yl)sulfonyl)-3-hydroxy-3-(hydroxymethyl)pyrrolidin-1-yl)sulfonyl)benzonitrile]
pIC50: 7.00 to 8.00

SMILES: N#Cc1ccc(S(=O)(=O)N2C[C@H](S(=O)(=O)c3ccc(Br)cc3)[C@](O)(CO)C2)c(Cl)c1 [Example 74, 4-(((3R,4S)-4-((4-bromophenyl)sulfonyl)-3-hydroxy-3-(hydroxymethyl)pyrrolidin-1-yl)sulfonyl)-3-chlorobenzonitrile]
pIC50: 8.00 to 10.00

SMILES: N#Cc1ccc(S(=O)(=O)[C@H]2CN(S(=O)(=O)c3ccc(Cl)cc3Cl)C[C@]2(O)CO)cc1F [Example 75, 4-(((3S,4S)-1-((2,4-dichlorophenyl)sulfonyl)-4-hydroxy-4-(hydroxymethyl)pyrrolidin-3-yl)sulfonyl)-2-fluorobenzonitrile]
pIC50: 8.00 to 10.00

SMILES: O=S(=O)(c1ccc(Cl)c(F)c1)[C@H]1CN(S(=O)(=O)c2ccc(Cl)cc2Cl)C[C@]1(O)CO [Example 76, (3S,4S)-4-((4-chloro-3-fluorophenyl)sulfonyl)-1-((2,4-dichlorophenyl)sulfonyl)-3-(hydroxymethyl)pyrrolidin-3-ol]
pIC50: 7.00 to 8.00

SMILES: N#Cc1cc(C(F)(F)F)ccc1S(=O)(=O)N1C[C@H](S(=O)(=O)c2ccc(F)c(F)c2)[C@@](O)(CO)C1 [Example 77, 2-(((3S,4S)-4-((3,4-difluorophenyl)sulfonyl)-3-hydroxy-3-(hydroxymethyl)pyrrolidin-1-yl)sulfonyl)-5-(trifluoromethyl)benzonitrile]
pIC50: 7.00 to 8.00

SMILES: O=S(=O)(c1ccc(Cl)c(F)c1)[C@H]1CN(S(=O)(=O)c2ccc(C(F)(F)F)cc2Cl)C[C@]1(O)CO [Example 78, (3S,4S)-4-((4-chloro-3-fluorophenyl)sulfonyl)-1-((2-chloro-4-(trifluoromethyl)phenyl)sulfonyl)-3-(hydroxymethyl)pyrrolidin-3-ol]
pIC50: 7.00 to 8.00

SMILES: N#Cc1cc(F)c(S(=O)(=O)[C@H]2CN(S(=O)(=O)c3ccc(Cl)cc3Cl)C[C@]2(O)CO)cc1F [Example 79, 4-(((3S,4S)-1-((2,4-dichlorophenyl)sulfonyl)-4-hydroxy-4-(hydroxymethyl)pyrrolidin-3-yl)sulfonyl)-2,5-difluorobenzonitrile]
pIC50: 7.00 to 8.00

SMILES: N#Cc1ccc(S(=O)(=O)[C@H]2CN(S(=O)(=O)c3ccc(C(F)(F)F)cc3Cl)C[C@]2(O)CO)cc1Cl [Example 80, 2-chloro-4-(((3S,4S)-1-((2-chloro-4-(trifluoromethyl)phenyl)sulfonyl)-4-hydroxy-4-(hydroxymethyl)pyrrolidin-3-yl)sulfonyl)benzonitrile]
pIC50: 7.00 to 8.00

SMILES: N#Cc1ccc(S(=O)(=O)N2C[C@H](S(=O)(=O)c3ccc(Br)cn3)[C@@](O)(CO)C2)c(Cl)c1 [Example 81, 4-(((3S,4S)-4-((5-bromopyridin-2-yl)sulfonyl)-3-hydroxy-3-(hydroxymethyl)pyrrolidin-1-yl)sulfonyl)-3-chlorobenzonitrile]
pIC50: 7.00 to 8.00

SMILES: N#Cc1ccc(S(=O)(=O)[C@H]2CN(S(=O)(=O)c3ccc(Cl)cc3Cl)C[C@@]2(O)CO)cc1 [Example 82, 4-(((3S,4R)-1-((2,4-dichlorophenyl)sulfonyl)-4-hydroxy-4-(hydroxymethyl)pyrrolidin-3-yl)sulfonyl)benzonitrile]
pIC50: 8.00 to 10.00

SMILES: N#Cc1ccc(S(=O)(=O)[C@H]2CN(S(=O)(=O)c3ccc(Cl)cc3Cl)C[C@@]2(O)CO)cc1F [Example 83, 4-(((3S,4R)-1-((2,4-dichlorophenyl)sulfonyl)-4-hydroxy-4-(hydroxymethyl)pyrrolidin-3-yl)sulfonyl)-2-fluorobenzonitrile]
pIC50: 8.00 to 10.00

SMILES: N#Cc1ccc(S(=O)(=O)[C@H]2CN(S(=O)(=O)c3ccc(Cl)cc3C#N)C[C@@]2(O)CO)cc1 [Example 84, 5-chloro-2-(((3R,4S)-4-((4-cyanophenyl)sulfonyl)-3-hydroxy-3-(hydroxymethyl)pyrrolidin-1-yl)sulfonyl)benzonitrile]
pIC50: 8.00 to 10.00

SMILES: O=S(=O)(c1ccc(F)c(F)c1)[C@H]1CN(S(=O)(=O)c2ccc(Cl)cc2Cl)C[C@@]1(O)CO [Example 85, (3R,4S)-1-((2,4-dichlorophenyl)sulfonyl)-4-((3,4-difluorophenyl)sulfonyl)-3-(hydroxymethyl)pyrrolidin-3-ol]
pIC50: 7.00 to 8.00

Reference: patent publication US11260049B2, “TRPV4 antagonists” (GlaxoSmithKline Intellectual Property (No. 2) Limited, priority 2016, dated 2022)
